Where two headings read alike, the source gives them in different places.
What was measured:
[1] = biological target: IDH1R132C (Homo sapiens (Human), UniProt O75874, R132C); assay: Inhibitory activity against IDH1R132C enzyme (NADPH detection, WST-8); format: biochemical; conditions: 10 nM, residual NADPH detected with WST-8, read-out: Test Example 1 IDH1 R132C IC50
[2] = system: HT-1080 cells expressing IDH1R132C; assay: 2-HG production inhibitory activity using HT1080 cell; format: cell-based, human
Procedure: Then, 100 μL of growth medium B was added to each well, further 25 μL of a solution of each compound diluted to a predetermined concentration with growth medium B was added to each well, and the cells were incubated at 37° C. for 2 days under 5% CO2. […] Then, 150 μL of ultrapure water was further added to each well, and the mixture was stirred by pipetting and stored at −20° C.
The preserved solutions were thawed at room temperature.

[3] = system: HT1080 xenografted mice (IDH1R132C); assay: 2-HG production inhibitory activity using HT1080 xenografted mice; format: in vivo, mouse; conditions: for response vs control in vivo at 75 mg/kg: Mus musculus, HT-1080, po, 6 h, read-out: Test Example 5 Ratio (%)
Procedure: HT1080 xenografted mice having successfully engrafted tumors were given by oral gavage each compound at 75 mg/kg a total of three times twice a day. The compound was suspended in a vehicle solution at 7.5 mg/mL using a homogenizer. Then, the suspension was stored at −20° C., thawed immediately before the administration, and given to mice. A negative control group for the test was given a vehicle by oral gavage. The body weights of the mice were measured using an automatic balance for small animals. The dosing solution was administered at a dose of 10 mL/kg body weight.
6 hours after the final administration, each mouse was euthanized with carbon dioxide. A portion of a tumor was collected, and its weight was measured using an electronic balance. Then, the tumor was frozen on dry ice. To the frozen tumor, methanol was added in an amount of 14 times the tumor weight. The resulting tumor was homogenized with Beads shocker (Yasui Kikai Corp.) and then incubated for 15 minutes in a freezer at −20° C. After centrifugation at 15000 rpm at 4° C. for 15 minutes using a high-speed refrigerated microcentrifuge, 250 μL of methanol and 400 μL of ultrapure water were added to 150 μL of the obtained supernatant. The prepared samples were subjected to 2-HG measurement.

[4] = Homo sapiens, HT-1080, 2-HG production, HT1080 cells, read-out: Test Example 3 IC50
[5] = 2-HG production, HT1080 xenografted mice

Chain of IDH1R132C (O75874 whole entry R132C): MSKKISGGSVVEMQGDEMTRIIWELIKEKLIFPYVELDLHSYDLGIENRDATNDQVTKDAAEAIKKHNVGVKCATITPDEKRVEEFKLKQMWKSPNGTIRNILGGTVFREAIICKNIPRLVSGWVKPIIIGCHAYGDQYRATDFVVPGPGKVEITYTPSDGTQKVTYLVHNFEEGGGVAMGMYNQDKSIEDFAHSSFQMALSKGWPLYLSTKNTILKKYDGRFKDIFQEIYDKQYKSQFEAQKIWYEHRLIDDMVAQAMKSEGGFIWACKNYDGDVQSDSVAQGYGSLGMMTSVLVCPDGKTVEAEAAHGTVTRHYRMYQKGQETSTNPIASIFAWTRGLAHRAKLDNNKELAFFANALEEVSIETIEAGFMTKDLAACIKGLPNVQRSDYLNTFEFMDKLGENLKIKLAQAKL

CC(C)(C)c1noc(-c2c(Cl)cc(Cl)cc2Cl)c1C(=O)n1ccc2c(/C=C/C(=O)O)cccc21 [Example 34, (2E)-3-(1-{[3-(tert-Butyl)-5-(2,4,6-trichlorophenyl)-1,2-oxazol-4-yl]carbonyl}-1H-indol-4-yl)prop-2-enoic acid]
IC50 [1]: 364 nM | IC50 [2, 4]: 209 nM | response vs control in vivo at 75 mg/kg [3, 5]: 55%

CC(C)(C)c1onc(-c2c(F)cc(Cl)cc2Cl)c1C(=O)n1ccc2c(/C=C/C(=O)O)cccc21 [Example 35, (2E)-3-(1-{[5-(tert-Butyl)-3-(2,4-dichloro-6-fluorophenyl)-1,2-oxazol-4-yl]carbonyl}-1H-indol-4-yl)prop-2-enoic acid]
IC50 [1]: 161 nM | IC50 [2, 4]: 244 nM | response vs control in vivo at 75 mg/kg [3, 5]: 64%

CC(C)(F)c1onc(-c2c(Cl)cc(Cl)cc2Cl)c1C(=O)n1ccc2c(/C=C/C(=O)O)cccc21 [Example 36, (2E)-3-(1-{[5-(2-Fluoropropan-2-yl)-3-(2,4,6-trichlorophenyl)-1,2-oxazol-4-yl]carbonyl}-1H-indol-4-yl)prop-2-enoic acid]
IC50 [1]: 109 nM | IC50 [2, 4]: 170 nM | response vs control in vivo at 75 mg/kg [3, 5]: 43%

CC1(c2onc(-c3c(Cl)cc(Cl)cc3Cl)c2C(=O)n2ccc3c(/C=C/C(=O)O)cccc32)CC1 [Example 37, (2E)-3-(1-{[5-(1-Methylcyclopropyl)-3-(2,4,6-trichlorophenyl)-1,2-oxazol-4-yl]carbonyl}-1H-indol-4-yl)prop-2-enoic acid]
IC50 [1]: 117 nM | IC50 [2, 4]: 149 nM | response vs control in vivo at 75 mg/kg [3, 5]: 35%

Cc1cc(Cl)c(-c2noc(C(C)(C)C)c2C(=O)n2ccc3c(/C=C/C(=O)O)cccc32)c(Cl)c1 [Example 38, (2E)-3-(1-{[5-(tert-Butyl)-3-(2,6-dichloro-4-methylphenyl)-1,2-oxazol-4-yl]carbonyl}-1H-indol-4-yl)prop-2-enoic acid]
IC50 [1]: 234 nM | IC50 [2, 4]: 200 nM | response vs control in vivo at 75 mg/kg [3, 5]: 61%

CC(C)(C)c1onc(-c2c(Cl)cc(Cl)cc2Cl)c1C(=O)n1cc(F)c2c(/C=C/C(=O)O)cccc21 [Example 40, (2E)-3-(1-{[5-(tert-Butyl)-3-(2,4,6-trichlorophenyl)-1,2-oxazol-4-yl]carbonyl}-3-fluoro-1H-indol-4-yl)prop-2-enoic acid]
IC50 [1]: 159 nM | IC50 [2, 4]: 57 nM | response vs control in vivo at 75 mg/kg [3, 5]: 18%

COCC(C)(C)c1onc(-c2c(Cl)cc(Cl)cc2Cl)c1C(=O)n1ccc2c(/C=C/C(=O)O)cccc21 [Example 42, (2E)-3-(1-{[5-(1-Methoxy-2-methylpropan-2-yl)-3-(2,4,6-trichlorophenyl)-1,2-oxazol-4-yl]carbonyl}-1H-indol-4-yl)prop-2-enoic acid]
IC50 [1]: 217 nM | IC50 [2, 4]: 178 nM | response vs control in vivo at 75 mg/kg [3, 5]: 84%

Cc1cn(C(=O)c2c(-c3c(Cl)cc(Cl)cc3Cl)noc2C2(C)CC2)c2cccc(/C=C/C(=O)O)c12 [Example 43, (2E)-3-(3-Methyl-1-{[5-(1-methylcyclopropyl)-3-(2,4,6-trichlorophenyl)-1,2-oxazol-4-yl]carbonyl}-1H-indol-4-yl)prop-2-enoic acid]
IC50 [1]: 139 nM | IC50 [2, 4]: 63 nM | response vs control in vivo at 75 mg/kg [3, 5]: 54%

COC1(c2onc(-c3c(Cl)cc(Cl)cc3Cl)c2C(=O)n2ccc3c(/C=C/C(=O)O)cccc32)CC1 [Example 44, (2E)-3-(1-{[5-(1-Methoxycyclopropyl)-3-(2,4,6-trichlorophenyl)-1,2-oxazol-4-yl]carbonyl}-1H-indol-4-yl)prop-2-enoic acid]
IC50 [1]: 189 nM | IC50 [2, 4]: 194 nM | response vs control in vivo at 75 mg/kg [3, 5]: 72%

CC(C)(F)c1onc(-c2c(F)cc(Cl)cc2Cl)c1C(=O)n1ccc2c(/C=C/C(=O)O)cccc21 [Example 46, (2E)-3-(1-{[3-(2,4-Dichloro-6-fluorophenyl)-5-(2-fluoropropan-2-yl)-1,2-oxazol-4-yl]carbonyl}-1H-indol-4-yl)prop-2-enoic acid]
IC50 [1]: 197 nM | IC50 [2, 4]: 459 nM | response vs control in vivo at 75 mg/kg [3, 5]: 69%

Cc1cn(C(=O)c2c(-c3c(F)cc(Cl)cc3Cl)noc2C(C)(C)F)c2cccc(/C=C/C(=O)O)c12 [Example 47, (2E)-3-(1-{[3-(2,4-Dichloro-6-fluorophenyl)-5-(2-fluoropropan-2-yl)-1,2-oxazol-4-yl]carbonyl}-3-methyl-1H-indol-4-yl)prop-2-enoic acid]
IC50 [1]: 98 nM | IC50 [2, 4]: 62 nM | response vs control in vivo at 75 mg/kg [3, 5]: 17%

CC(C)(C)c1onc(-c2c(Cl)cc(Cl)cc2Cl)c1C(=O)n1ccc2c(/C=C/C(=O)O)ccc(F)c21 [Example 48]
IC50 [1]: 193 nM | IC50 ([2]; 2-HG production, HT1080 cells, read-out: Test Example 3 IC50): 115 nM | Test Example 5 Ratio (%) [3, 5]: 72%

Cc1cn(C(=O)c2c(-c3c(Cl)cc(F)cc3Cl)noc2C(C)(C)F)c2cccc(/C=C/C(=O)O)c12 [Example 49, (2E)-3-(1-{[3-(2,6-Dichloro-4-fluorophenyl)-5-(2-fluoropropan-2-yl)-1,2-oxazol-4-yl]carbonyl}-3-methyl-1H-indol-4-yl)prop-2-enoic acid]
IC50 [1]: 79 nM | IC50 [2, 4]: 119 nM | response vs control in vivo at 75 mg/kg [3, 5]: 44%

Cc1cn(C(=O)c2c(-c3c(Cl)cc(Cl)cc3Cl)noc2C(C)(C)F)c2c(F)ccc(/C=C/C(=O)O)c12 [Example 50, (2E)-3-(7-Fluoro-1-{[5-(2-fluoropropan-2-yl)-3-(2,4,6-trichlorophenyl)-1,2-oxazol-4-yl]carbonyl}-3-methyl-1H-indol-4-yl)prop-2-enoic acid]
IC50 [1]: 104 nM | IC50 [2, 4]: 173 nM | response vs control in vivo at 75 mg/kg [3, 5]: 84%

Cc1cn(C(=O)c2c(-c3c(Cl)cc(Cl)cc3Cl)noc2C(C)(F)F)c2cccc(/C=C/C(=O)O)c12 [Example 51, (2E)-3-(1-{[5-(1,1-Difluoroethyl)-3-(2,4,6-trichlorophenyl)-1,2-oxazol-4-yl]carbonyl}-3-methyl-1H-indol-4-yl)prop-2-enoic acid]
IC50 [1]: 115 nM | IC50 ([2]; Homo sapiens, HT-1080, read-out: Test Example 3 IC50 (nM)): 83 nM | response vs control in vivo at 75 mg/kg [3]: 52%

Cc1cn(C(=O)c2c(-c3c(F)cccc3Cl)noc2C(C)(C)F)c2cccc(/C=C/C(=O)O)c12 [Example 52, (2E)-3-(1-{[3-(2-Chloro-6-fluorophenyl)-5-(2-fluoropropan-2-yl)-1,2-oxazol-4-yl]carbonyl}-3-methyl-1H-indol-4-yl)prop-2-enoic acid]
IC50 [1]: 136 nM | IC50 [2, 4]: 263 nM | response vs control in vivo at 75 mg/kg [3, 5]: 71%

Cc1cn(C(=O)c2c(-c3c(Cl)cccc3Cl)noc2C(C)(C)F)c2cccc(/C=C/C(=O)O)c12 [Example 53, (2E)-3-(1-{[3-(2,6-Dichlorophenyl)-5-(2-fluoropropan-2-yl)-1,2-oxazol-4-yl]carbonyl}-3-methyl-1H-indol-4-yl)prop-2-enoic acid]
IC50 [1]: 163 nM | IC50 [2, 4]: 146 nM | response vs control in vivo at 75 mg/kg [3, 5]: 60%

Cc1cn(C(=O)c2c(-c3c(F)cc(Cl)cc3F)noc2C(C)(C)F)c2cccc(/C=C/C(=O)O)c12 [Example 54, (2E)-3-(1-{[3-(4-Chloro-2,6-difluorophenyl)-5-(2-fluoropropan-2-yl)-1,2-oxazol-4-yl]carbonyl}-3-methyl-1H-indol-4-yl)prop-2-enoic acid]
IC50 [1]: 109 nM | IC50 [2, 4]: 90 nM | Test Example 5 Ratio (%) [3, 5]: 16%

Cc1cc(Cl)cc(C)c1-c1noc(C(C)(C)F)c1C(=O)n1cc(C)c2c(/C=C/C(=O)O)cccc21 [Example 55, (2E)-3-(1-{[3-(4-Chloro-2,6-dimethylphenyl)-5-(2-fluoropropan-2-yl)-1,2-oxazol-4-yl]carbonyl}-3-methyl-1H-indol-4-yl)prop-2-enoic acid]
IC50 [1]: 125 nM | IC50 [2, 4]: 62 nM | response vs control in vivo at 75 mg/kg [3, 5]: 15%

Cc1cc(Cl)c(-c2noc(C(C)(C)F)c2C(=O)n2cc(C)c3c(/C=C/C(=O)O)cccc32)c(Cl)c1 [Example 56, (2E)-3-(1-{[3-(2,6-Dichloro-4-methylphenyl)-5-(2-fluoropropan-2-yl)-1,2-oxazol-4-yl]carbonyl}-3-methyl-1H-indol-4-yl)prop-2-enoic acid]
IC50 [1]: 107 nM | IC50 [2, 4]: 52 nM | response vs control in vivo at 75 mg/kg [3, 5]: 28%

COC1(c2onc(-c3c(Cl)cc(Cl)cc3Cl)c2C(=O)n2cc(C)c3c(/C=C/C(=O)O)cccc32)CC1 [Example 57, (2E)-3-(1-{[5-(1-Methoxycyclopropyl)-3-(2,4,6-trichlorophenyl)-1,2-oxazol-4-yl]carbonyl}-3-methyl-1H-indol-4-yl)prop-2-enoic acid]
IC50 [1]: 98 nM | IC50 [2, 4]: 26 nM | response vs control in vivo at 75 mg/kg [3, 5]: 12%

— patent publication US10040791B2, “Isoxazole derivative as mutant isocitrate dehydrogenase 1 inhibitor” (Daiichi Sankyo Company, Limited, priority 2014, dated 2018)
